Data set [1] in a line: Solubility test in 10% CD or CD derivative solution. The settings on record: thermodynamic from solid, room temperature. Type of data set: physicochemical. The procedure: To 5 mL of a 10% CD or CD derivative solution, about 100 mg of Compound A monohydrate was added, and stirred at room temperature for 24 hours. To the solutions in which αCD, HPαCD, DMβCD and methyl-β-cyclodextrin were used, about 100 mg of Compound A monohydrate was added after 6 hours. After centrifugation (3000 rpm, 10 minutes), the supernatant was filtered with a filter, and the solubility was measured by the HPLC method.

Data set [2] concerns Pseudomonas aeruginosa clinical isolate (S-2838 strain). Nature of the data set: Mouse model with pulmonary infection by multidrug-resistant Pseudomonas aeruginosa. The settings on record: cyclophosphamide-treated male ICR mice, S-2838 strain intranasal, 25 mg/kg. Type of data set: in vivo. The procedure: The mice used were male ICR SPF mice (4.5 weeks old at the time of infection: 5 individuals per group). In order to achieve a transient compromised state, cyclophosphamide was intraperitoneally administered at a dose of 200 mg/kg to each mouse 4 days before injection.
(§1) To prepare a bacterial inoculum solution, a Pseudomonas aeruginosa clinical isolate (S-2838 strain) was suspended in sterile saline.
Infection was induced by the inoculation of 0.05 mL of the inoculum solution (approximately 10^5 CFU/mouse) to each mouse intranasally. […] The numbers of bacterial colonies of the next day of the infection in the lungs were recorded, and an average thereof was calculated.

Data set [3] deals with multidrug-resistant Pseudomonas aeruginosa clinical isolate (S-2838 strain). The data set is described as follows: Defense against mouse systemic infection using multidrug-resistant Pseudomonas aeruginosa. The format is in vivo. The settings on record: male ICR mice, S-2838 strain i.p., 25 mg/kg. Here is the method:
The mice used were male ICR SPF mice (4 weeks old: 5 individuals per group).
To prepare a bacterial inoculum solution, a multidrug-resistant Pseudomonas aeruginosa clinical isolate (S-2838 strain) cultured overnight at 37° C. on a Mueller-Hinton agar plate was cultured for 5 hours in a cation-adjusted Mueller-Hinton medium and then diluted 10-fold with a 10% mucin/phosphate buffer solution to prepare the inoculum solution.
Infection was induced by the intraperitoneal inoculation of 0.5 mL of the inoculum solution (approximately 10^6 CFU/mouse) to each mouse. […] Three days after the infection, the number of survivors was recorded.

Data set [4] relates to Pseudomonas aeruginosa clinical isolate (S-2838 strain). The data set is described as follows: Mouse model with urinary tract infection by multidrug-resistant Pseudomonas aeruginosa. The format is in vivo. The settings on record: female ICR mice, S-2838 strain via urethra, 12.5 mg/kg. Here is the method:
The mice used were female ICR SPF mice (5 weeks old: 5 individuals per group).
as §1
Infection was induced by the inoculation of 0.2 mL of the inoculum solution (approximately 10^3 CFU/mouse) through the urethra of each mouse. […] The numbers of bacterial colonies of the next day of the infection in the kidneys were recorded, and an average thereof was calculated.

As for `CNC(=O)[C@@](C)(C(=O)NO)N(C)C(=O)c1ccc(C#Cc2ccc([C@H](O)CO)cc2)cc1` [Compound A monohydrate, (2S)-2-((4-((4-((1S)-1,2-dihydroxyethyl)phenyl)ethynyl)benzoyl)(methyl)amino)-N-hydroxy-N′,2-dimethylmalonamide], the solubility (as a rule, the dissolved amount per volume that the medium holds) at 24 h in data set [1] (10% DMβCD solution, aqueous with cosolvent or surfactant or cyclodextrin, 10% DM β CD solution) came out at 16.6 mg/mL; in data set [1] (10% HPαCD solution, aqueous with cosolvent or surfactant or cyclodextrin, 10% HP α CD solution), 25.7 mg/mL; in data set [1] (10% HPβCD solution, aqueous with cosolvent or surfactant or cyclodextrin, 10% HP β CD solution), 11.6 mg/mL; in data set [1] (10% HPγCD solution, aqueous with cosolvent or surfactant or cyclodextrin, 10% HP γ CD solution), 8.8 mg/mL; in data set [1] (10% SBEβCD solution, aqueous with cosolvent or surfactant or cyclodextrin, 10% SBE β CD solution) it was 8.9 mg/mL; in data set [1] (10% αCD solution, aqueous with cosolvent or surfactant or cyclodextrin, 10% α CD solution) it was 30.2 mg/mL. Further, the solubility at 24 h in data set [1] (10% βCD solution, aqueous with cosolvent or surfactant or cyclodextrin, 10% β CD solution) was determined as 5.9 mg/mL; in data set [1] (10% γCD solution, aqueous with cosolvent or surfactant or cyclodextrin, 10% γ CD solution) it was 14.4 mg/mL; in data set [1] (aqueous with cosolvent or surfactant or cyclodextrin, 10% 2,3,6-Tri-O-methyl-β-cyclodextrin solution), 4.7 mg/mL; in data set [1] (aqueous with cosolvent or surfactant or cyclodextrin, 10% 6-O-α-maltosyl-β-cyclodextrin solution), 10 mg/mL; in data set [1] (aqueous with cosolvent or surfactant or cyclodextrin, 10% Hydroxyethyl-β-cyclodextrin solution), 11.9 mg/mL; in data set [1] (aqueous with cosolvent or surfactant or cyclodextrin, 10% Methyl-β-cyclodextrin solution), 17.5 mg/mL. Moreover, the solubility at 24 h in data set [1] (water, None (no CD or CD derivative)) stood at 0.2 mg/mL.
With `CNC(=O)[C@@](C)(C(=O)NO)N(C)C(=O)c1ccc(C#Cc2ccc([C@H](O)CO)cc2)cc1` [Compound A, (2S)-2-((4-((4-((1S)-1,2-dihydroxyethyl)phenyl)ethynyl)benzoyl)(methyl)amino)-N-hydroxy-N′,2-dimethylmalonamide], the “decrease in the intrapulmonary viable cell count compared to the control group” value in data set [2] is at least 2 log CFU/lung. For the same molecule, the “mice surviving 3 days after the bacterial inoculation” value in data set [3] is reported as at least 60%. For the same molecule, in data set [4], the “decrease in the intrarenal viable cell count compared to the control group” value was at least 2 log CFU/kidney.

Source of the values: US10149911B2, “Pharmaceutical composition containing hydroxamic acid derivative or salt thereof” (TOYAMA CHEMICAL CO., LTD., priority 2014, dated 2018).
